Molecular target: T1, AcnA (Staphylococcus aureus, UniProt Q2FYS9)
T1 sequence (Q2FYS9 1-901): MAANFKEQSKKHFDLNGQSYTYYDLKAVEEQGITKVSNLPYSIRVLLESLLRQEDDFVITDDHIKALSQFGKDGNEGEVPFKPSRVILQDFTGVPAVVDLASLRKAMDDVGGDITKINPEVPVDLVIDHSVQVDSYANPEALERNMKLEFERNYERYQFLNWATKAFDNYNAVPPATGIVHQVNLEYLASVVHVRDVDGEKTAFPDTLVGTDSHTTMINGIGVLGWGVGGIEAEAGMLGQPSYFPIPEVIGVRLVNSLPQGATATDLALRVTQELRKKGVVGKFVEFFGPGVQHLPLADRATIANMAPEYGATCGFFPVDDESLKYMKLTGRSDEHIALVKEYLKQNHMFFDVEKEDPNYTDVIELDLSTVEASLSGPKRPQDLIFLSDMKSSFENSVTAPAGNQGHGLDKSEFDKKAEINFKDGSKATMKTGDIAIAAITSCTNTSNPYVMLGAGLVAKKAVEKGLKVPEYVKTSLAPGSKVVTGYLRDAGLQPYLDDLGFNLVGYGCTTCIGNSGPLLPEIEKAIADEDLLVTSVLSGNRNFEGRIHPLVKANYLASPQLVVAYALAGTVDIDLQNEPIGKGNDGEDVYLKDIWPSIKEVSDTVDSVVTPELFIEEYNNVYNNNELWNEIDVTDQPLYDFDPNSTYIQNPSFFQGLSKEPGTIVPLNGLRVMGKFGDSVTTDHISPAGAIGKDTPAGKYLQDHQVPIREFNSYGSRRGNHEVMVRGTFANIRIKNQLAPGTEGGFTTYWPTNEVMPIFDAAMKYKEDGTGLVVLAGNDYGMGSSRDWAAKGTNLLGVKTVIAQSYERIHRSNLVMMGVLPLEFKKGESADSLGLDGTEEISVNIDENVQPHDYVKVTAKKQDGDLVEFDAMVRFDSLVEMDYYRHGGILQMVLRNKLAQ
Experiment: spectrophotometric, cis-aconitate formation at […] nm
Type: biochemical
Conditions: Fe-S cluster reconstituted in vitro

## O=C(O)C[C@H](C(=O)O)[C@@H](O)C(=O)O [isocitrate]
  spectrophotometric, cis-aconitate formation at 240 nm: purified AcnA was determined by monitoring the conversion of isocitrate to cis-aconitate spectrophotometrically

— publication PMC5117899 (Cell chemical biology, 2016)
